The values below come from paper PMC8528214 (RSC Medicinal Chemistry, 2021).

In one data set the target is T1, MMP-1 (Homo sapiens, UniProt P03956).
T1 sequence (P03956 100-469): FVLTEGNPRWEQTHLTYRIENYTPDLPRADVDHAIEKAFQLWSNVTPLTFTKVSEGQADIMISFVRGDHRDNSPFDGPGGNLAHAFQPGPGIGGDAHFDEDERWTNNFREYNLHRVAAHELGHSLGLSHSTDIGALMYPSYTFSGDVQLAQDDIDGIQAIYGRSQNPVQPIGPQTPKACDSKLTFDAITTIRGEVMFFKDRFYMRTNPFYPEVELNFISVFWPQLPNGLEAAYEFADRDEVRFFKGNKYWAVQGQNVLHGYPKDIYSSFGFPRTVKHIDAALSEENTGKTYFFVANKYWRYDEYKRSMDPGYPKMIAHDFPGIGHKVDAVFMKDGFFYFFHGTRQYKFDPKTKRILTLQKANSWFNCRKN
Kind of data set: MMP in vitro inhibition assay, MMP-1. Format: biochemical.

Another data set has as its target T2, MMP-2 (Homo sapiens, UniProt P08253).
T2 sequence (P08253 110-660): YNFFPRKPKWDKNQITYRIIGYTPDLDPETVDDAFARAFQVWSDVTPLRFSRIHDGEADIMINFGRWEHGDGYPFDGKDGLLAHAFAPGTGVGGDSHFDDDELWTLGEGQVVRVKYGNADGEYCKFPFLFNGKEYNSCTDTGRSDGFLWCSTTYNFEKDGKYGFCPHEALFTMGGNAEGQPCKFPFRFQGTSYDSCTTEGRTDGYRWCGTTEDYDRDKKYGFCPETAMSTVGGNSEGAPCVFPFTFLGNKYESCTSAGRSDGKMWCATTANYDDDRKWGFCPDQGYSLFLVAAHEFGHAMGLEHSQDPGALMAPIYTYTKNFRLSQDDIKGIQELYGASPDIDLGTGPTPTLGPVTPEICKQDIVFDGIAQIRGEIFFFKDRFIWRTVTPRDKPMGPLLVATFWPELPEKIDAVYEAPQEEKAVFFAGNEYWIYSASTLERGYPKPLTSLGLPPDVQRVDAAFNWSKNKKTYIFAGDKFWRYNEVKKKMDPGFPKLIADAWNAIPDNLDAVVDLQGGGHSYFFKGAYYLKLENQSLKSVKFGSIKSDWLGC
As to the kind of experiment: MMP in vitro inhibition assay, MMP-2. The class given is biochemical.

Another data set addresses MMP-3 (Homo sapiens, UniProt P08254). As to the kind of experiment: MMP in vitro inhibition assay, MMP-3. Format: biochemical.
The target in another data set is T3, MMP-7 (Homo sapiens, UniProt P09237).
T3 sequence (P09237 95-267): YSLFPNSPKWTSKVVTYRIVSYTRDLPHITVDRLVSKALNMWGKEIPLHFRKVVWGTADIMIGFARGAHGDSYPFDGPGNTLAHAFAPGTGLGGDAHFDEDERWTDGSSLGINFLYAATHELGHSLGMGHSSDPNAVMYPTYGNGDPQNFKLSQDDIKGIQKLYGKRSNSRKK
Kind of data set: MMP in vitro inhibition assay, MMP-7. The class given is biochemical.

The next data set has as its target MMP-8 (Homo sapiens, UniProt P22894). As to the kind of experiment: MMP in vitro inhibition assay, MMP-8. Format: biochemical.
A further data set deals with MMP-14 (Homo sapiens, UniProt P50281). As to the kind of experiment: MMP in vitro inhibition assay, MMP-14. Format: biochemical.
Another data set concerns the target HDAC-3 (Homo sapiens, UniProt O15379). The class given is biochemical.
For a further data set, the target named is T4, HDAC-8 (Homo sapiens, UniProt Q9BY41).
T4 sequence (Q9BY41 1-377): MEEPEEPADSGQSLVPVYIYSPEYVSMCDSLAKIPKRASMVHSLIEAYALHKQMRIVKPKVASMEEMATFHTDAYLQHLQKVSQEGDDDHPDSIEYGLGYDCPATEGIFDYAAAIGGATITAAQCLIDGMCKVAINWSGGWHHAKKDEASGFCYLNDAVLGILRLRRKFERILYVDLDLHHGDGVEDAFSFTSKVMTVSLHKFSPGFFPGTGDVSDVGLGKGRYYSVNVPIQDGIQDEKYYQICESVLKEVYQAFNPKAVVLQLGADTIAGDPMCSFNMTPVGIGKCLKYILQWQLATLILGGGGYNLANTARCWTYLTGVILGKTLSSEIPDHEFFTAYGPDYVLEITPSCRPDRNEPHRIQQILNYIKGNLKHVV
Kind of data set: HDAC in vitro inhibition assay. Format: biochemical.

The next data set deals with HepG2. The conditions noted are these: at 100 μM; cited from earlier work.
A further data set relates to HEK293. Conditions: at 100 μM; cited from earlier work.
Another data set has as its system A549. The conditions noted are these: at 100 μM; cited from earlier work.
In a further data set the test system is zebrafish embryos. Conditions: cited from earlier work.
In the next data set the test system is collagenase H (ColH). The conditions noted are these: cited from earlier work; for ColH inhibitory activity: tested in their thiocarbamate form.
The test system of data set [1] is Galleria mellonella larvae infection model. Conditions: cited from earlier work.
Data set [2] relates to NDM-1-expressing K. pneumoniae (T2301). Kind of data set: Growth inhibition assay. Conditions: imipenem alone at 8 μg mL−1 (0.5× MIC).

Sequence of MMP-3 (P08254 100-477): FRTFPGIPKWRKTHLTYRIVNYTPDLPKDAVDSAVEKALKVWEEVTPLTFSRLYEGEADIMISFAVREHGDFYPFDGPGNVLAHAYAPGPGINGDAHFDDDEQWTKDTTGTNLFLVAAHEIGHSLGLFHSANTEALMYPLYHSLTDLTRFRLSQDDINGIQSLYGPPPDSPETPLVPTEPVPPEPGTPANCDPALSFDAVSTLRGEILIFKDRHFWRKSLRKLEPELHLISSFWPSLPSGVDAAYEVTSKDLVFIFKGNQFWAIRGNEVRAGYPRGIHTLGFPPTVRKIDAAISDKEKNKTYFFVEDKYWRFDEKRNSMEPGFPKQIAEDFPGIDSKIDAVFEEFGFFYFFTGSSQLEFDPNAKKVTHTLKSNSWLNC
Sequence of MMP-8 (P22894 101-467): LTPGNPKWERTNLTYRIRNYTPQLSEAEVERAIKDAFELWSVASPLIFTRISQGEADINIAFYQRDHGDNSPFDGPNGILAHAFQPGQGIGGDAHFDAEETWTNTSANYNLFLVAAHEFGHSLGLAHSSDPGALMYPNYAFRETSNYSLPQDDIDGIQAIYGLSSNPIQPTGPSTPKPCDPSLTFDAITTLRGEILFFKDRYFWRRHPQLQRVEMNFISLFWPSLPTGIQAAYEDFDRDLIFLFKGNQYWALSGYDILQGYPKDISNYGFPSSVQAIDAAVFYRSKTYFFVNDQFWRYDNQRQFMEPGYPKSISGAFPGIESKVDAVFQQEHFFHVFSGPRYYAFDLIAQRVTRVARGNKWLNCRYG
Sequence of HDAC-3 (O15379 whole entry): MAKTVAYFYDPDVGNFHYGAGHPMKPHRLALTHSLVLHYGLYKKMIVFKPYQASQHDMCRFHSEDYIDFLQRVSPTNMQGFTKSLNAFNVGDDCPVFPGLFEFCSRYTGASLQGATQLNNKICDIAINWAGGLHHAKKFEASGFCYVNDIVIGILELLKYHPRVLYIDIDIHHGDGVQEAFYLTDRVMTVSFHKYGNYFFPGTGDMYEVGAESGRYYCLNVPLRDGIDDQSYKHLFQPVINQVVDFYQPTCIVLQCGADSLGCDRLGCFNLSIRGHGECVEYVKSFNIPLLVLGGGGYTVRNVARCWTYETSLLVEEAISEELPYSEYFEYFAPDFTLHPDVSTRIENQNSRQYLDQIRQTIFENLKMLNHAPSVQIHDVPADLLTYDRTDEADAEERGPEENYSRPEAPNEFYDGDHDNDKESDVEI
Sequence of HDAC-3 (Q9Y618 395-489 partner limits assumed): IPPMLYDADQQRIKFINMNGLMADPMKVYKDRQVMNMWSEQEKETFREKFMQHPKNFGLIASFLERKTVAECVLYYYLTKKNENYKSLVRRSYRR

As to `O=C(CS)Nc1ccc(Cl)c(Cl)c1` [Compound 1], on MMP-1 (100 μM), the inhibition (as a rule, the drop in the measured response relative to a control, in per cent) at 100 μM, MMP-1 is on record as “no inhibition”. For the same compound, the inhibition at 100 µM on MMP-1 (read-out: inhibition at 100 μM, MMP-1) is not above 10%; on MMP-2 (read-out: inhibition at 100 μM, MMP-2), not above 10%; on MMP-3 (read-out: inhibition at 100 μM, MMP-3), not above 10%; at MMP-7 (read-out: inhibition at 100 μM, MMP-7), not above 10%; at MMP-8 (read-out: inhibition at 100 μM, MMP-8) it was not above 10%; on MMP-14 (read-out: inhibition at 100 μM, MMP-14) it was not above 10%. Further, on MMP-2 (100 μM), the “inhibition at 100 μM, MMP-2” value was “no inhibition”. Moreover, the “inhibition at 100 μM, MMP-3” value on MMP-3 (100 μM) was “no inhibition”. Moreover, on MMP-7 (100 μM), the “inhibition at 100 μM, MMP-7” value is “no inhibition”. Moreover, on MMP-8 (100 μM), the “inhibition at 100 μM, MMP-8” value is “no inhibition”. Besides, at MMP-14 (100 μM), the “inhibition at 100 μM, MMP-14” value is “no inhibition”. Besides, the “inhibition at 100 μM, HDAC-3” value against HDAC-3 was “no inhibition”. Also, the “inhibition at 100 μM, HDAC-8” value against HDAC-8 is reported as “no inhibition”. The “cytotoxicity against HepG2” value in the data set on HepG2 is reported as “did not show any cytotoxicity”. Besides, in the data set on HEK293, the “cytotoxicity against HEK293” value was “did not show any cytotoxicity”. Further, the “cytotoxicity against A549” value with A549 is “did not show any cytotoxicity”. Moreover, the “maximum tolerated concentration (MTC)” value in the data set with zebrafish embryos was 10 µM. Besides, the ColH inhibitory activity entry in the data set with collagenase H (ColH) is given as “micromolar activities”. The in vivo efficacy entry in data set [1] is on record as “in vivo efficacy”.

Turning to `O=C(CS)Nc1ccccc1Cl` [Compound 26], the ColH inhibitory activity result in the data set with collagenase H (ColH) is “micromolar activities”.

Take `CC(=O)c1ccc(NC(=O)CS)cc1` [Compound 28]: the ColH inhibitory potency result in the data set with collagenase H (ColH) is “nanomolar”.

With `C[C@@H](O)[C@H]1C(=O)N2C(C(=O)O)=C(SCCNC=N)C[C@H]12` [imipenem], in [2], the “Growth of imipenem-treated bacteria vs imipenem-free control after 24 hours” value was “no relevant differences”.
